Source: paper PMC11302589 (Organic & biomolecular chemistry, 2012)

How the values were obtained:
[1] = target: Salmonella typhimurium sialidase (Salmonella typhimurium, UniProt P29768); assay: biochemical
[2] = target: Vibrio cholerae sialidase (type III) (Vibrio cholerae serotype O1, UniProt P0C6E9); assay: biochemical; type: biochemical; conditions: for IC50: V. cholerae
[3] = target: human cytosolic sialidase NEU2 (Homo sapiens, UniProt Q9Y3R4); assay: biochemical; type: biochemical; conditions: for IC50: IC50 with Neu5Acα2–3GalβpNP as sialidase substrate, NEU2
[4] = target: Streptococcus pneumoniae sialidase NanB (Streptococcus pneumoniae serotype 4, UniProt Q54727); assay: biochemical
β-galactosidase = target: T1, β-galactosidase (Aspergillus oryzae, UniProt Q2UCU3); type: biochemical
T1 sequence (Q2UCU3 19-1005): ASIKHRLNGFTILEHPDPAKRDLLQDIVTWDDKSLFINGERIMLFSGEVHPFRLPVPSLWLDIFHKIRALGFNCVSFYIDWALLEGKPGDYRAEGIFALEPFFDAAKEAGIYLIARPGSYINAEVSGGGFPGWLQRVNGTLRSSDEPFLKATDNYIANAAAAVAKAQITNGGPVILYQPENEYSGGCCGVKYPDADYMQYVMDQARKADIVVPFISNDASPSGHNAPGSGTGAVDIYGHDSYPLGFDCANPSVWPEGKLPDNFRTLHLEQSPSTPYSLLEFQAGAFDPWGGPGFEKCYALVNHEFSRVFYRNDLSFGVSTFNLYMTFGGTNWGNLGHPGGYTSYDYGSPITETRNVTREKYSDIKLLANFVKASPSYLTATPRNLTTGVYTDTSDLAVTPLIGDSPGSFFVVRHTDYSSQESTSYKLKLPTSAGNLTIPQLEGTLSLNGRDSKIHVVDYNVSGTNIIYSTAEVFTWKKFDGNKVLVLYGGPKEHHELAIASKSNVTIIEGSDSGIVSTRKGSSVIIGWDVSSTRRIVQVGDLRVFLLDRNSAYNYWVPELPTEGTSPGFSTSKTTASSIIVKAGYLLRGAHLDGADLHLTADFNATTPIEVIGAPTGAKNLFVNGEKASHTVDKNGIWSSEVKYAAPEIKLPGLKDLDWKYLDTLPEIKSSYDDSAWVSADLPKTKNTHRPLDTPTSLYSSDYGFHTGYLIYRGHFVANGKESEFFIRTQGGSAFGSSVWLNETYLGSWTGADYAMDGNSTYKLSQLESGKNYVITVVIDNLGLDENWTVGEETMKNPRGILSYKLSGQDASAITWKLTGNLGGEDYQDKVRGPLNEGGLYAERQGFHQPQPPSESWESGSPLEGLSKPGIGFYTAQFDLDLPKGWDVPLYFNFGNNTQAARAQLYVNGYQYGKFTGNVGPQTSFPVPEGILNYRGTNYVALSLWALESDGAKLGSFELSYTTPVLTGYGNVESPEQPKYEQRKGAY

[5] = IC50 with Neu5Acα2–6GalβpNP as sialidase substrate
[6] = IC50 with Neu5Acα2–3GalβpNP as sialidase substrate

Streptococcus pneumoniae sialidase NanB, sequence (Q54727 30-697): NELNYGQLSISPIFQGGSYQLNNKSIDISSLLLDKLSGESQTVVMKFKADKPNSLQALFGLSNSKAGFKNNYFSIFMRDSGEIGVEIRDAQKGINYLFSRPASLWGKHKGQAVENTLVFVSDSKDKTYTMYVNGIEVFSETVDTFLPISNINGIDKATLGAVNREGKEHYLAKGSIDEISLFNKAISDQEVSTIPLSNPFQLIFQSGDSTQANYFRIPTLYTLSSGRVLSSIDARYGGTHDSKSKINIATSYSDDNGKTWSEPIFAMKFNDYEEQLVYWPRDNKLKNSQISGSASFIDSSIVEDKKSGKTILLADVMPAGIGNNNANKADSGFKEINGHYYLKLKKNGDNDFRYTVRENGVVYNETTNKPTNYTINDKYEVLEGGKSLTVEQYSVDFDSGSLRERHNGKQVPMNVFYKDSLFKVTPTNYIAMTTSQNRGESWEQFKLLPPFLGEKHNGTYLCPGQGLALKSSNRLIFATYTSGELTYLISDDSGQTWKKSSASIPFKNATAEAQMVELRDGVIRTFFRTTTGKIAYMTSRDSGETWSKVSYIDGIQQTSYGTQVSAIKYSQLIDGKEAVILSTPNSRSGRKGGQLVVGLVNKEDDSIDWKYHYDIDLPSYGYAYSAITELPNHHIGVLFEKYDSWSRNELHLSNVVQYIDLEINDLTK
Vibrio cholerae sialidase (type III), sequence (P0C6E9 25-781 limits assumed): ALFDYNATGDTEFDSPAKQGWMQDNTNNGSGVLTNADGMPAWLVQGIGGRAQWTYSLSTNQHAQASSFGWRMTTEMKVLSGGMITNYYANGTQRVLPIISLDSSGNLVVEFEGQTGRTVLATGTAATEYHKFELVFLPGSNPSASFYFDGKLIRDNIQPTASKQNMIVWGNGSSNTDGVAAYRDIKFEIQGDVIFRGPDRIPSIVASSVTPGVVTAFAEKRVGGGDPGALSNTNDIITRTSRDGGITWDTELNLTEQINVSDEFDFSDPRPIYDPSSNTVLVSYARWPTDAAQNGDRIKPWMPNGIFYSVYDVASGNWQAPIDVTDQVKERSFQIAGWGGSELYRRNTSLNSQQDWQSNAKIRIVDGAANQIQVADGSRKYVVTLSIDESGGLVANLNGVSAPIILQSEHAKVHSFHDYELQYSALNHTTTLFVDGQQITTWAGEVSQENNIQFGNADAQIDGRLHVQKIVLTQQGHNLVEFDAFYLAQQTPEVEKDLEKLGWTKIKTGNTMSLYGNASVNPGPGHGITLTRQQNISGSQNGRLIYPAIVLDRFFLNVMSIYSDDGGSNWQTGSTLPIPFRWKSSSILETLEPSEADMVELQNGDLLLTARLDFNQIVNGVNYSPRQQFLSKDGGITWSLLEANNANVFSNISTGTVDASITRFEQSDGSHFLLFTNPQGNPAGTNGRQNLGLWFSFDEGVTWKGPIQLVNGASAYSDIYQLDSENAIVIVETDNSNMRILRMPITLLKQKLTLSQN
Salmonella typhimurium sialidase, sequence (P29768 whole entry): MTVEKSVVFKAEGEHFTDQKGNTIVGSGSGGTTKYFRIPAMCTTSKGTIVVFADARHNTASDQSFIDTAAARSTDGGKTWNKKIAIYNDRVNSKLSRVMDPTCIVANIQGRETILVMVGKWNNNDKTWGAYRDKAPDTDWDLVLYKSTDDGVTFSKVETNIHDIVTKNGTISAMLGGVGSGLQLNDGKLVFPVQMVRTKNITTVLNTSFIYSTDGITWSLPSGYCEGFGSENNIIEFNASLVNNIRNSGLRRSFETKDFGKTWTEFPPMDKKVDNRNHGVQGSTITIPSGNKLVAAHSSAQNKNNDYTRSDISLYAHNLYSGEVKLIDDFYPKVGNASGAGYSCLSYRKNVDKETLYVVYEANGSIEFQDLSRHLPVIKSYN
human cytosolic sialidase NEU2, sequence (Q9Y3R4 whole entry): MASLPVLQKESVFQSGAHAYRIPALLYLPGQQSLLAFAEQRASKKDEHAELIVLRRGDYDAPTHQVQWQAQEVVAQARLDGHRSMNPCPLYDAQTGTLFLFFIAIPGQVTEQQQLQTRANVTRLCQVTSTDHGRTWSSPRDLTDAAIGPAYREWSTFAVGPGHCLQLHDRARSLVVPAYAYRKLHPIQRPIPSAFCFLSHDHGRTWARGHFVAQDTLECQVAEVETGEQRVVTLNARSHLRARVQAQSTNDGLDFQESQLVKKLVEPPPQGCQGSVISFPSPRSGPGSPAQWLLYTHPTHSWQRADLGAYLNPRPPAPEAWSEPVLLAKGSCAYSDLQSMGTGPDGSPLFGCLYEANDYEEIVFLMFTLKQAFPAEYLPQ

| SMILES | IC50 [1] [µM] | fold less efficient than Neu5Ac2en (1) against V. cholerae sialidase [2] [fold] | IC50 [2, 5] [µM] | fold less efficient than Neu5Ac2en (1) against human NEU2 [3] [fold] | IC50 [3] [µM] | IC50 [4] [µM] | inhibitory effect against β-galactosidase (β-galactosidase) | IC50 [2, 6] [µM] | selectivity for V. cholerae sialidase among the five sialidases tested [2] |
| --- | --- | --- | --- | --- | --- | --- | --- | --- | --- |
| CC(=O)N[C@H]1[C@H]([C@H](O)[C@H](O)CN=[N+]=[N-])OC(C(=O)O)=C[C@@H]1O [Neu5Ac9N32en (3), 5-Acetamido-2,6-anhydro-9-azido-3,5,9-trideoxy-D-glycero-D-galacto-non-2-enonic acid] | 210 | 2.3 | 8.7 ± 1 | 2.4 | 43 ± 2 | 3300 | no inhibitory effect | – | – |
| CCCNC[C@@H](O)[C@@H](O)[C@@H]1OC(C(=O)O)=C[C@H](O)[C@H]1NC(C)=O [Neu5Ac9NPro2en (7), 5-Acetamido-9-aminopropyl-2,6-anhydro-3,5,9-trideoxy-D-glycero-D-galacto-non-2-enonic acid] | 2300 | – | > 1000 | – | – | 5400 | no inhibitory effect | > 1000 | – |
| CC(=O)N[C@H]1[C@H]([C@H](O)[C@H](O)CO)OC(C(=O)O)=C[C@@H]1O [Neu5Ac2en (1), 2-deoxy-2,3-dehydro-N-acetylneuraminic acid, reference compound] | – | – | – | – | – | – | no inhibitory effect | – | – |
| COC[C@@H](O)[C@@H](O)[C@@H]1OC(C(=O)O)=C[C@H](O)[C@H]1NC(C)=O [Neu5Ac9Me2en (6), 5-Acetamido-2,6-anhydro-3,5-dideoxy-9-O-methyl-D-glycero-D-galacto-non-2-enonic acid] | 130 | – | 120 | – | 1100 | 3000 | no inhibitory effect | 130 | – |
| [N-]=[N+]=NC[C@@H](O)[C@@H](O)[C@@H]1OC(C(=O)O)=C[C@H](O)[C@H]1NC(=O)CO [Neu5Gc9N32en (4), 2,6-Anhydro-9-azido-3,5,9-trideoxy-5-(2-hydroxyacetamido)-D-glycero-D-galacto-non-2-enonic acid] | > 10000 | – | 13 ± 2 | – | 150 | > 10000 | no inhibitory effect | 18 ± 3 | selective inhibitor |
| [N-]=[N+]=NCC(=O)N[C@H]1[C@H]([C@H](O)[C@H](O)CN=[N+]=[N-])OC(C(=O)O)=C[C@@H]1O [Neu5AcN39N32en (5), 2,6-Anhydro-9-azido-5-(2-azidoacetamido)-3,5,9-trideoxy-D-glycero-D-galacto-non-2-enonic acid] | 16000 | – | 110 | – | – | > 1000 | no inhibitory effect | 140 | – |
